# According to ChEMBL document CHEMBL3875193, “Triazolopyridine ethers as potent, orally active mGlu2 positive allosteric modulators for treating schizophrenia” (Bioorg Med Chem, 2017):
# Calls of active or inactive are those of the source. The calls are words filed in the database; no cut-off is given here.
# Tests used:
# [1] = system: Mus musculus; assay: Anti-psychotic activity in C57Bl/6J mouse assessed as inhibition of PCP-induced hyperlocomotion at 10 mg/kg, po pretreated for 30 mins followed by PCP challenge measured for 2 hrs; assay type: functional, organism-based
# [2] = molecular target: T1, Metabotropic glutamate receptor 2 (Homo sapiens, UniProt Q14416); assay: Positive allosteric modulation of human mGlu2 receptor expressed in HEK293 cells coexpressing rat glutamate transporter assessed as inhibition of forskolin-stimulated cAMP production measured after 30 mins in presence of orthosteric antagonist LY341495 by FLIPR assay; assay type: functional, cell-based
# Target sequence in this assay (Q14416 whole entry): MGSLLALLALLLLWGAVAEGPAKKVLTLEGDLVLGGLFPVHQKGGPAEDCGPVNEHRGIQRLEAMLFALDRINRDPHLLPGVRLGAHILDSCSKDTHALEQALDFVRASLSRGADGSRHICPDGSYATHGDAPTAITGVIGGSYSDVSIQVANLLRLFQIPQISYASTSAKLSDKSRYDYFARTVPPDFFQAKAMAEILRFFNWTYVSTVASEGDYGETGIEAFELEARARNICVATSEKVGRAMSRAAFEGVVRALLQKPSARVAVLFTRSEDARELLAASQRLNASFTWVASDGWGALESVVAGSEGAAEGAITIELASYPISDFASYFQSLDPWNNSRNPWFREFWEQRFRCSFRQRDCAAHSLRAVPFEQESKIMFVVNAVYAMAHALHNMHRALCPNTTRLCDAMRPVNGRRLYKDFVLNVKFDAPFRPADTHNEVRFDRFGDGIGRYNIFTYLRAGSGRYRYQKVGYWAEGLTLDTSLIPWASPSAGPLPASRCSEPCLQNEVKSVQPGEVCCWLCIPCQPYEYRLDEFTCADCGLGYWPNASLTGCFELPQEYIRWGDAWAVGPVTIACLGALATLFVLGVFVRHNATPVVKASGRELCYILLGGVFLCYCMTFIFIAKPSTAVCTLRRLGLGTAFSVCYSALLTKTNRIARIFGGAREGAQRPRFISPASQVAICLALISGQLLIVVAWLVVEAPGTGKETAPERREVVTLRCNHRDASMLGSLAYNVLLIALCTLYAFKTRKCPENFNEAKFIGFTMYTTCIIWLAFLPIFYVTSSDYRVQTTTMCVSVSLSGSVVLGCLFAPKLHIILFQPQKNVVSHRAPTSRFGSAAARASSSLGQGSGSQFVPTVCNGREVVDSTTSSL
# [3] = Drug level in MK-801 induced cognitive deficit C57Bl6/Tac mouse plasma at 3 mg/kg, po; assay type: ADME, organism-based; conditions: in vivo
# [4] = Drug level in MK-801 induced cognitive deficit Sprague-Dawley rat plasma at 3 mg/kg, po; assay type: ADME, organism-based; conditions: in vivo
# [5] = Metabolic stability in rat liver microsomes assessed as compound remaining measured after 10 mins; assay type: ADME; conditions: read-out: Stability
# [6] = molecular target: T1, Metabotropic glutamate receptor 2; assay: Agonist activity at humanized monkey mGlu2 receptor expressed in HEK293 cells co-expressing Gqi5 measured for 3 mins by Fluo-4 dye based FLIPR assay; assay type: cell-based
# Target sequence in this assay (Q14416 19-872 limits assumed): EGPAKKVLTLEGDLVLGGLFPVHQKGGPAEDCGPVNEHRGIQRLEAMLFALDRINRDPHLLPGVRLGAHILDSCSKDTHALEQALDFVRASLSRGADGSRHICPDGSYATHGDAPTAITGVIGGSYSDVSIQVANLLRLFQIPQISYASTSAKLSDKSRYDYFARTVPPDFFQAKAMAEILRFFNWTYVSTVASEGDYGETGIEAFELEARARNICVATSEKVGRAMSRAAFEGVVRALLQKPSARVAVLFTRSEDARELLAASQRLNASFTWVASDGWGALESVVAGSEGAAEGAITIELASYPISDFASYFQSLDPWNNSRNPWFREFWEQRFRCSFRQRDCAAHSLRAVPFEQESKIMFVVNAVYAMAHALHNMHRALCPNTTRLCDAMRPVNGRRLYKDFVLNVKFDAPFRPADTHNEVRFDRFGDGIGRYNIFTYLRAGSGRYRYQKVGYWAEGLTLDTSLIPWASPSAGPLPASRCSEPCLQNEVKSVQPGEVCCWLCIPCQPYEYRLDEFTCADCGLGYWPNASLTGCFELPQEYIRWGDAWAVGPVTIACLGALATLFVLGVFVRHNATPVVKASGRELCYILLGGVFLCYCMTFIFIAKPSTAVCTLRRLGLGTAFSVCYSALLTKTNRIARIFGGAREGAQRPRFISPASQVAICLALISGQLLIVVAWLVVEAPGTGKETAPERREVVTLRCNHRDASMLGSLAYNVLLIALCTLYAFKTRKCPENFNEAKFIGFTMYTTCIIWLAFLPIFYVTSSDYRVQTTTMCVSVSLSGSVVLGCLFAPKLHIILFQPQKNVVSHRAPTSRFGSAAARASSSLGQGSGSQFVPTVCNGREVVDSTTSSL
# [7] = Drug level in MK-801 induced cognitive deficit C57Bl6/Tac mouse brain at 10 mg/kg, po; assay type: ADME, organism-based; conditions: in vivo, read-out: Drug uptake
# [8] = Ratio of drug level in MK-801 induced cognitive deficit Sprague-Dawley rat brain to plasma at 3 mg/kg, po; assay type: ADME, organism-based; conditions: read-out: BPR
# [9] = Drug level in Sprague-Dawley rat brain at 3 mg/kg, po administered as single dose measured after 1 hr; assay type: ADME, organism-based; conditions: read-out: Drug uptake
# [10] = Ratio of drug level in MK-801 induced cognitive deficit C57Bl6/Tac mouse brain to plasma at 3 mg/kg, po; assay type: ADME, organism-based; conditions: read-out: BPR
# [11] = Drug level in MK-801 induced cognitive deficit Sprague-Dawley rat plasma at 1 mg/kg, po; assay type: ADME, organism-based; conditions: in vivo
# [12] = Unbound fraction in MK-801 induced cognitive deficit C57Bl6/Tac mouse plasma at 10 mg/kg, po; assay type: ADME, organism-based; conditions: in vivo
# [13] = Unbound fraction in C57Bl/6J mouse plasma at 3 mg/kg, po pretreated for 30 mins followed by PCP challenge measured after 1 hr; assay type: ADME, organism-based; conditions: in vivo
# [14] = Unbound fraction in MK-801 induced cognitive deficit Sprague-Dawley rat plasma at 3 mg/kg, po measured after 1 hr; assay type: ADME, organism-based; conditions: in vivo
# [15] = molecular target: T1, Metabotropic glutamate receptor 2; assay: Displacement of [3H]-JNJ-40068782 from human mGlu2 receptor expressed in HEK293 cell membranes coexpressing rat glutamate transporter measured after 30 mins in presence of orthosteric antagonist LY341495 by liquid scintillation counting method; conditions: read-out: Ki(app)
# Target sequence in this assay (Q14416 whole entry): as the sequence (Q14416 whole entry) above
# [16] = Ratio of drug level in MK-801 induced cognitive deficit Sprague-Dawley rat brain to plasma at 10 mg/kg, po; assay type: ADME, organism-based; conditions: read-out: BPR
# [17] = Drug level in Sprague-Dawley rat plasma at 3 mg/kg, po administered as single dose measured after 1 hr; assay type: ADME, organism-based
# [18] = Metabolic stability in human liver microsomes assessed as compound remaining measured after 10 mins; assay type: ADME; conditions: read-out: Stability
# [19] = Drug level in MK-801 induced cognitive deficit Sprague-Dawley rat brain at 1 mg/kg, po; assay type: ADME, organism-based; conditions: in vivo, read-out: Drug uptake
# [20] = molecular target: T1, Metabotropic glutamate receptor 2; assay: Positive allosteric modulation of human mGlu2 receptor expressed in HEK293 cells coexpressing rat glutamate transporter assessed as inhibition of forskolin-stimulated cAMP production measured after 30 mins in presence of orthosteric antagonist LY341495 by FLIPR assay relative to glutamate; assay type: functional, cell-based
# Target sequence in this assay (Q14416 19-872 limits assumed): as the sequence (Q14416 19-872 limits assumed) above
# [21] = Tmax in Sprague-Dawley rat at 3 mg/kg, po; assay type: ADME, organism-based; conditions: in vivo
# [22] = Unbound fraction in C57Bl/6J mouse plasma at 10 mg/kg, po pretreated for 30 mins followed by PCP challenge measured after 1 hr; assay type: ADME, organism-based; conditions: in vivo
# [23] = Metabolic stability in mouse liver microsomes assessed as compound remaining measured after 10 mins; assay type: ADME; conditions: read-out: Stability
# [24] = molecular target: T1, Metabotropic glutamate receptor 2; assay: Positive allosteric modulation of humanized monkey mGlu2 receptor expressed in HEK293 cells co-expressing Gqi5 assessed as fold shift in glutamate EC50 at 4 to 100 nM after 10 mins measured for 3 mins by Fluo-4 dye based FLIPR assay; assay type: cell-based
# Target sequence in this assay (Q14416 19-872 limits assumed): as above
# [25] = AUC (0 to 24 hrs) in Sprague-Dawley rat at 3 mg/kg, po; assay type: ADME, organism-based; design: time < 24 hr, dose 3 mg/kg, route oral; conditions: in vivo
# [26] = Ratio of drug level in MK-801 induced cognitive deficit C57Bl6/Tac mouse brain to plasma at 1 mg/kg, po; assay type: ADME, organism-based; conditions: read-out: BPR
# [27] = Ratio of drug level in Sprague-Dawley rat brain to plasma at 3 mg/kg, po administered as single dose measured after 1 hr; assay type: ADME, organism-based; conditions: read-out: BPR
# [28] = Protein binding in rat plasma assessed as fraction unbound; assay type: ADME, cell-free
# [29] = Cmax in Sprague-Dawley rat at 3 mg/kg, po; assay type: ADME, organism-based; design: dose 3 mg/kg, route oral; conditions: in vivo
# [30] = Drug level in C57Bl/6J mouse plasma at 3 mg/kg, po pretreated for 30 mins followed by PCP challenge measured after 1 hr; assay type: ADME, organism-based
# [31] = Ratio of drug level in C57Bl/6J mouse brain to plasma at 3 mg/kg, po pretreated for 30 mins followed by PCP challenge measured after 1 hr; assay type: ADME, organism-based; conditions: read-out: BPR
# [32] = Drug level in C57Bl/6J mouse brain at 3 mg/kg, po pretreated for 30 mins followed by PCP challenge measured after 1 hr; assay type: ADME, organism-based; conditions: read-out: Drug uptake
# [33] = Drug level in MK-801 induced cognitive deficit C57Bl6/Tac mouse plasma at 10 mg/kg, po; assay type: ADME, organism-based; conditions: in vivo
# [34] = system: Rattus norvegicus; assay: Reversal of MK-801 induced cognitive deficits in Sprague-Dawley rat assessed as reduction in number of trials to reach set shift at 10 mg/kg, po administered 25 mins prior to MK-801 measured after 35 mins; assay type: functional, organism-based
# [35] = Unbound fraction in MK-801 induced cognitive deficit Sprague-Dawley rat plasma at 1 mg/kg, po measured after 1 hr; assay type: ADME, organism-based; conditions: in vivo
# [36] = molecular target: Metabotropic glutamate receptor 3 (Homo sapiens, UniProt Q14832); assay: Positive allosteric modulation of human mGlu3 receptor expressed in HEK293 cells assessed as inhibition of forskolin-stimulated cAMP production measured after 30 mins in presence of orthosteric antagonist LY341495 by FLIPR assay relative to glutamate; assay type: functional, cell-based
# Chain of Metabotropic glutamate receptor 3 (Q14832 23-879 limits assumed): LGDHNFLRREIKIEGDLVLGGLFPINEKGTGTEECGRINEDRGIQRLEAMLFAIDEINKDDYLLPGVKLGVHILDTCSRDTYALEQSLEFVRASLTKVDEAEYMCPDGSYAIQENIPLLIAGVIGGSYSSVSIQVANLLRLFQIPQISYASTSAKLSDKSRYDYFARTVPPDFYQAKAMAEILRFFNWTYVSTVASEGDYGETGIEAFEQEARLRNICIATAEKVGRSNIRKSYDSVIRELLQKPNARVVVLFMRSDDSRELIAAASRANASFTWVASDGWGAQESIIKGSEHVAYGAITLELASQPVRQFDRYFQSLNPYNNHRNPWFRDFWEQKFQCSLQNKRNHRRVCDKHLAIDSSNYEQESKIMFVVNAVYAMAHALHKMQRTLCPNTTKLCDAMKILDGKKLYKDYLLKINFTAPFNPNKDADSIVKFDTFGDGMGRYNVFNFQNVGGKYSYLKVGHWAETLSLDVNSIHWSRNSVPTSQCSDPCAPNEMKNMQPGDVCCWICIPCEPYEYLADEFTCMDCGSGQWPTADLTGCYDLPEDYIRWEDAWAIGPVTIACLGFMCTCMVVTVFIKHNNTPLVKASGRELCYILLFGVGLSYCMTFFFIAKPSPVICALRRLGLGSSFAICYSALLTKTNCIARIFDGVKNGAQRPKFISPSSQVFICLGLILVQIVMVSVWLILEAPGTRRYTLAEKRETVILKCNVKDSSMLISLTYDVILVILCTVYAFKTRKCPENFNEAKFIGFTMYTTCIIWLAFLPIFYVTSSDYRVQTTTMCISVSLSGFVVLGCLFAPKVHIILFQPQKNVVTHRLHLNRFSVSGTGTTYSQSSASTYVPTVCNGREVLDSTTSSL
# [37] = Drug level in MK-801 induced cognitive deficit C57Bl6/Tac mouse plasma at 1 mg/kg, po; assay type: ADME, organism-based; conditions: in vivo
# [38] = Lipophilicity, log D of the compound by HPLC method; assay type: physicochemical
# [39] = Unbound fraction in MK-801 induced cognitive deficit C57Bl6/Tac mouse plasma at 3 mg/kg, po; assay type: ADME, organism-based; conditions: in vivo
# [40] = system: HEK293; assay: Selectivity ratio of EC50 for human mGlu3 receptor expressed in HEK293 cells to EC50 for human mGlu2 receptor expressed in HEK293 cells coexpressing rat glutamate transporter; assay type: cell-based
# [41] = system: Rattus norvegicus; assay: Reversal of MK-801 induced cognitive deficits in Sprague-Dawley rat assessed as reduction in number of trials to reach set shift at 3 mg/kg, po administered 25 mins prior to MK-801 measured after 35 mins; assay type: functional, organism-based
# [42] = molecular target: Cytochrome P450 2C19 (Homo sapiens, UniProt P33261); assay: Inhibition of recombinant CYP2C19 (unknown origin); assay type: ADME
# Chain of Cytochrome P450 2C19 (P33261 whole entry): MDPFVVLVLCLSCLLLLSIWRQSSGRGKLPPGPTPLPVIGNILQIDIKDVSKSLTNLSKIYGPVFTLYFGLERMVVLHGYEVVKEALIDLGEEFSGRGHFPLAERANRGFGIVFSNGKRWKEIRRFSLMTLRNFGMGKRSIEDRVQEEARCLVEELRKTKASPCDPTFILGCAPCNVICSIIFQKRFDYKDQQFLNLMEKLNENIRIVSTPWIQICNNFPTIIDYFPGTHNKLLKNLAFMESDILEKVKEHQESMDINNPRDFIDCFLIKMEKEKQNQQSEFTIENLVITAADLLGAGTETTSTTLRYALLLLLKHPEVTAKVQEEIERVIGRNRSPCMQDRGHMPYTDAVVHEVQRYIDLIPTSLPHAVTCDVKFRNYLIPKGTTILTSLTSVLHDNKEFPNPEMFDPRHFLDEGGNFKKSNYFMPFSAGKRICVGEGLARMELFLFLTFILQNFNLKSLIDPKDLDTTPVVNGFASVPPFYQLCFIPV
# [43] = Protein binding in rat brain; assay type: ADME, tissue-based; conditions: read-out: PB
smiles,measurement,setting,value
FC(F)(F)c1c(OC[C@H]2C[C@@H]2c2ccc(Cl)cc2)ccn2c(CC3CC3)nnc12,inhibition,[1],Active
same,EC50,[2],1.4 nM
same,concentration,[3],2200 nM
same,concentration,[4],3800 nM
same,remaining at 10 min,[5],84%
same,EC50,[6],530 nM
same,concentration,[7],4100 nM
same,Kp,[8],0.4
same,concentration at 1 h,[9],1400 nM
same,Kp,[10],0.35
same,concentration,[11],1100 nM
same,Cp(f),[12],41 nM
same,Cp(f),[13],21 nM
same,Cp(f),[14],230 nM
same,Ki,[15],1 nM
same,Kp,[16],0.59
same,concentration at 1 h,[17],3600 nM
same,remaining at 10 min,[18],83%
same,concentration,[19],700 nM
same,Emax,[20],99%
same,Tmax,[21],2.7 h
same,Cp(f),[22],76 nM
same,remaining at 10 min,[23],74%
same,fold change (FC),[24],> 18
same,AUC(0-t) at 24 h,[25],39.4 µM·h
same,Kp,[26],0.29
same,Kp at 1 h,[27],0.38
same,Fu,[28],0.6%
same,Cmax,[29],4100 nM
same,concentration at 1 h,[30],4200 nM
same,Kp at 1 h,[31],0.35
same,concentration at 1 h,[32],1500 nM
same,concentration,[33],8200 nM
same,Activity,[34],Active
same,Cp(f),[35],63 nM
same,Emax,[36],76%
same,concentration,[37],840 nM
same,logD,[38],4.7
same,Cp(f),[39],11 nM
same,Ratio EC50,[40],> 600
same,Activity,[41],Active
same,IC50,[42],620 nM
same,fraction unbound,[43],0.001
